Key:
[1] = Inhibition of jack beans alpha-mannosidase
[2] = Inhibition of Streptomyces plicatus beta-D-hexosaminidase

Compound | Ki [1] | Ki [2]
CN(C)c1ccc(-c2cnc(-c3ccc(S(=O)(=O)NCCCCCCN4C[C@H](O)[C@@H](O)[C@H](O)[C@H]4CO)cc3)o2)cc1 [4-(5-(4-(dimethylamino)phenyl)oxazol-2-yl)-N-(6-((2R,3R,4R,5S)-3,4,5-trihydroxy-2-(hydroxymethyl)piperidin-1-yl)hexyl)benzenesulfonamide] | 65 µM | –
CC(=O)N[C@H]1CN(CCCCCCNS(=O)(=O)c2cccc3c(N(C)C)cccc23)[C@H](CO)[C@@H](O)[C@@H]1O [N-((3S,4R,5R,6R)-1-(6-(1-(dimethylamino)naphthalene-5-sulfonamido)hexyl)-4,5-dihydroxy-6-(hydroxymethyl)piperidin-3-yl)acetamide] | – | 1800 nM

Source: BindingDB's records for doi:10.1016/j.bmcl.2006.01.095 (Technische Universität Graz, 2006)
